Assay results from US8431528B2, “Antibacterial Lactobacillus GG peptides and methods of use” (priority 2008, dated 2013).
Read-outs that look alike come from different tables or passages of the source. Ends that are not written are not given here.

Key:
[1] = system: methicillin-resistant Staphylococcus aureus (MRSA); assay type: cell-based; settings: MRSA growth (FIG. 11)
Text: LGG CM (19.7×10^12 CFU/ML) as positive control.

[2] = system: E. coli EAEC 042; assay type: cell-based; settings: EAEC 042, 3 h
Procedure: FIGS. 6A-6B show: EAEC 042 growth time-course (FIG. 6A). Ten microliters of E. coli (2.16×10^14 CFU/mL) were added in 1 mL LB broth and incubated in 37° C., shaking at 225 rpm, measuring A600 every 30 minutes. […] Ten microliters of EAEC 042 (7.7×10^12CFU/mL) were added to 1 mL LB broth mixed, and 100 mL of each peptide solution dissolved in MRS was added to the mixture. MRS alone (100 mL) and LGG CM (100 mL) (initial concentration 19.7×10^12CFU/mL) were used as negative and positive controls, respectively. The mixture was cultured for 3 hours and the A600 measured at the end of incubation. Also shown is the mean percentage inhibition ±SD. N=3 for all synthetic peptides tested. N=7 for LGG CM.
The assay was performed as described (12), with minor modifications. Briefly, 10 mL E. coli EAEC 042 (7.7×10^14CFU/mL) was added to 1.0 mL LB Broth, mixed, and 100 mL of each LGG-derived synthetic peptide solution dissolved in MRS (for peptide final concentration see FIG. 6B) was added to the mixture. MRS alone (100 mL) and LGG CM 100 mL (LGG concentration: 19.7×10^12 CFU/mL) were used as negative and positive controls, respectively. The mixture was cultured for 3 hours with shaking at 225 rpm, 37° C., measuring A600 at the end.

[3] = system: Kanamycine-resistant E. coli SM10_pir; settings: Kanamycine-resistant E. coli 2.6×10^13 CFU/ML, 3 hours, A600
Procedure: SM10_pir (2.6×10^13) 10 ml+100 ml peptide (in LB)+900 ml LB, mixed, incubated at 37° C., 225 rpm for 3 hours, at the end, measure A600 and calculation the inhibition rate. […] LGG CM (9.7×10^12 CFU/ML) as positive control.
(§1) SM 10_pir (2.6×10^13CFU) or TOPO10 (8.76×10^13) 10 μl, peptides solution 100 μl and (peptides dissolved in LB broth) were added into 900 ul LB broth, mixed, incubated at 37° C., for 3 hours with shaking at 225 rpm, measure the A600 at the end. Relative inhibition activity was calculated according to the following formula (1−A600 of sample group/A600 of control group)×100%.

[4] = system: Tetracycline-resistant E. coli TOPO10; settings: Tetracycline-resistant E. coli 8.7×10^13 CFU/ML, 3 hours, A600
Procedure: TOPO10 (8.76×10^13) 10 ml+100 ml peptide (in LB)+900 ml LB, mixed, incubated at 37° C., 225 rpm for 3 hours, at the end, measure A600 and calculation the inhibition rate. […] LGG CM (9.7×10^12 CFU/ML) as positive control.
as §1

[5] = system: Salmonella typhi; experiment: Colony-count relative inhibition of Salmonella growth by peptide NPSRQERR; assay type: cell-based; settings: S. typhi 38×10^6 CFU/mL; 3 hours, then overnight colony count
[6] = system: Staphylococcus aureus; experiment: Colony-count relative inhibition of Staphylococcus growth by peptide NPSRQERR; assay type: cell-based

Substance: NPSRQQRR (antibacterial peptide isolated from Lactobacillus GG) [variant of NPSRQERR with net positive charge increased from 2 to 3]
- inhibition activity increased relative to NPSRQERR ([1]; net positive charge increased from 2 to 3): 16.5%

Substance: VHTAPK [VHTAPK]
- E. coli growth inhibition [2]: 30%
- inhibition rate ([3]; peptide 3.25 mM): 29.45%
- inhibition rate ([4]; peptide 3.25 mM): 48.53%

Substance: NPSRQEFF (peptide sequence SEQ ID NO 1 where residues 7 and 8 are both replaced with Phe for a zero net charge) [variant of NPSRQERR with net positive charge decreased from 2 to 0]
- inhibition activity lost relative to NPSRQERR ([1]; net positive charge decreased from 2 to 0): 12%

Substance: NPSRQERR [NPSRQERR]
- E. coli growth inhibition [2]: 81.4%
- peptide concentration at which 100% inhibition was reached [5]: 8 mmol/L
- peptide concentration at which 100% inhibition was reached ([6]; S. aureus 44×10^6 CFU/mL, 3 hours, then overnight colony count): 64 mmol/L
- effect on S. aureus ([6]; compared with E. coli EAEC 042): less pronounced but dose dependent
- inhibition rate ([3]; peptide 2.76 mM): 43.75%
- inhibition rate ([4]; peptide 2.76 mM): 69.08%

Substance: PDENK [PDENK]
- E. coli growth inhibition [2]: 68.7%
- inhibition rate ([3]; peptide 3.31 mM): 68.54%
- inhibition rate ([4]; peptide 3.31 mM): 81.4%
